Assay results taken from paper PMC12055592, “Post-symptomatic NLRP3 inhibition rescues cognitive impairment and mitigates amyloid and tau driven neurodegeneration” (Npj Dementia, 2025).

Experiments:
5XFAD/Rubicon KO mice = assay: Immunoblotting of NeuN and MAP2 in cortical and hippocampal lysates of 5XFAD/Rubicon KO mice; assay type: in vivo, mouse; conditions: 20 mg/kg vs vehicle, not statistically significant
Method: 5XFAD/Rubicon KO mice received vehicle (0.5% w/v methylcellulose/0.1% w/v Tween® 80 in water) or VEN-02XX (0.01, 1, or 20 mg/kg) every day by oral gastric gavage for 9 weeks.
Ten ug of protein was separated by gel electrophoresis (one gel loaded with cortex samples and one gel loaded with hippocampus samples), on a 4–15% gradient Tris-glycine gel and transferred to PVDF membranes using the TransBlot Turbo semi-dry transfer system (Bio-Rad Laboratories, Hercules, CA). The membranes were blocked in Tris-buffered saline, 0.1% Tween 20 (1X TBST) with 5% milk for 1 h at room temperature followed by overnight incubation at 4 °C with primary antibodies (1:1000 rabbit anti-NeuN [EMD Millipore, Burlington, MA] and 1:10,000 rabbit anti-Vinculin [Cell Signaling, Boston, MA]) diluted in TBST with 1% milk. For the complete list of antibodies please reference Supplementary Table 2. The next day, membranes were washed three times with 1XTBST for 10 min before incubation with HRP-conjugated secondary antibody (1:500 goat anti-rabbit [Cedarlane Labs, Burlington, ON]) for 90 min at room temperature. Membranes were then washed three times with 1XTBST for 10 min and developed with Pierce ECL western blotting substrate (Thermo Fisher Scientific) and visualized on a ChemiDoc imaging system (Bio-Rad Laboratories). […]

[1] = system: TNFα in iPSC-derived microglia; assay: iPSC-derived microglia in vitro assay, secreted TNFα (specificity); assay type: cell-based; conditions: for IC50: Microglia
Method: iPSC-derived microglia (BX-0900, BrainXell, Madison, WI) were thawed and recovered as per the supplier’s instructions. Briefly, viable cells were counted post-thaw using Trypan Blue, 0.4% (Thermo Fisher Scientific) and 25,000 cells were seeded on poly-d-lysine coated 96-well plates in DMEM-F/12 medium (Thermo Fisher Scientific) supplemented with 1X B-27 supplement (Thermo Fisher Scientific), 1X N-2 supplement (Thermo Fisher Scientific), 1X Non-essential amino acids (Thermo Fisher Scientific), 1X Chemically defined lipid mix (Thermo Fisher Scientific), 1 mM GlutaMax (Thermo Fisher Scientific), 0.2 mM Ascorbic Acid (Millipore), 100 ng/mL IL-34 (PeproTech, Cranbury, NJ), 2 ng/mL TGF-β1 (PeproTech) and 20 ng/mL M-CSF (PeproTech). Fresh media was added 3 days after seeding, half of which was replenished with fresh media 6 days following seeding. The assay was performed 7 days after cells were seeded in 96-well plates. Two assay protocol variations were performed: cells were either pre-treated with VEN-02XX to block NLRP3 inflammasome formation and then primed with LPS (Fig. 1, D. Compound added before LPS priming) or were primed with LPS and then treated with VEN-02XX (Fig. 1, D. Compound added after LPS priming). For compound treatment, cells were treated with VEN-02XX for 1 h (top concentration 100 µM; 3-fold titration) to block NLRP3 inflammasome formation. For LPS priming, cells were primed with 100 ng/mL LPS (E.coli O26:B6, Millipore) for 4 h. At the end of either protocol, cells were stimulated with 10 uM Nigericin (Millipore) for 1 h, after which conditioned media was collected for analysis of secreted IL-1β, IL-18 and TNFα in an electrochemiluminescence immunoassay (Mesoscale Discovery).

[2] = system: NLRP3 inflammasome, IL-1β release in mouse whole blood; assay: Mouse whole-blood in vitro assay (LPS, ATP, secreted IL-1β); assay type: cell-based
Method: Blood was collected from CD1 female mice in lithium-Heparin tubes (Sarstedt, Numbrecht, Germany). Freshly collected blood was distributed in each well of a 96-well round-bottom cell culture plate (Corning Life Sciences, Tewksbury, MA). Blood was primed with 1 µg/ml Lipopolysaccharide (LPS) (E. coli O26:B6, Millipore, Burlington, MA) for 4.5 h, incubated at 37 °C with 5% CO2. Following LPS priming, blood was incubated with VEN-02XX pre-diluted in HBSS (Thermo Fisher Scientific, Waltham, MA) with 2% DMSO, for 30 min (top concentration 25 µM; 3-fold titration). Following drug incubation, blood was stimulated with 5 mM ATP (Millipore) for an additional 30 min at 37 °C with 5% CO2 under continuous shaking (450 RPM), after which conditioned media was collected for analysis of secreted IL-1β in an electrochemiluminescence immunoassay (Mesoscale Discovery).

## CC(C)(O)CNc1nnc(-c2ccc(Cl)cc2C(F)(F)F)c2ccncc12 [VEN-02XX]
5XFAD/Rubicon KO mice
  MAP2 expression (immunoblot, normalized to vinculin): improved MAP2 levels
  NeuN protein expression (immunoblot, normalized to vinculin): consistent improvements in overall NeuN protein expression
[1]; compound added after LPS priming
  IC50: > 10 µM
[1]; compound added before LPS priming
  IC50: > 30 µM
[1]; specificity, in words
  TNFα inhibition in cellular assay: lack of TNFα inhibition
[2]; Mus musculus, IL-1β, geometric mean, n = 3
  IC50: 0.44 µM
[2]; in words
  potency of NLRP3 inhibition in whole blood: sub-micromolar potency
